Assay type in all cases: functional
Common to all, as to settings: Female gonad

Test [1] concerns Macrotermes subhyalinus. Nature of the test: Effect on oxygen consumption in Macrotermes subhyalinus ovary mitochondria assessed as inhibition of state 3 respiration assessed oxygen atom per mg protein per min at 250 uM by polarographic analysis.
Test [2] concerns Macrotermes subhyalinus. Nature of the test: Effect on oxygen consumption in Macrotermes subhyalinus ovary mitochondria assessed as inhibition of state 4 respiration assessed oxygen atom per mg protein per min at 250 uM by polarographic analysis.
Test [3] relates to Macrotermes subhyalinus. Nature of the test: Effect on oxygen consumption in Macrotermes subhyalinus ovary mitochondria assessed as inhibition of state 4U respiration assessed oxygen atom per mg protein per min at 250 uM in presence of 2,4-dinitrophenol by polarographic analysis.
For test [4], the system named is Macrotermes subhyalinus. Nature of the test: Inhibition of oxidative phosphorylation in Macrotermes subhyalinus ovary mitochondria assessed as respiratory control ratio assessed oxygen atom per mg protein per min at 250 uM.
In test [5] the test system is Macrotermes subhyalinus. Nature of the test: Inhibition of oxidative phosphorylation in Macrotermes subhyalinus ovary mitochondria assessed as ADP/O ratio at 250 uM.
Test [6] concerns Macrotermes subhyalinus. Nature of the test: Effect on phosphorylation rate in Macrotermes subhyalinus ovary mitochondria assessed as nmoles ATP synthesized per mg protein per min at 250 uM.
Test [7] deals with Macrotermes subhyalinus. Nature of the test: Effect on oxygen consumption in Macrotermes subhyalinus ovary mitochondria assessed as inhibition of state 3 respiration assessed oxygen atom per mg protein per min at 100 uM by polarographic analysis.
Test [8] has as its system Macrotermes subhyalinus. Nature of the test: Effect on oxygen consumption in Macrotermes subhyalinus ovary mitochondria assessed as inhibition of state 4 respiration assessed oxygen atom per mg protein per min at 100 uM by polarographic analysis.
Test [9] has as its system Macrotermes subhyalinus. Nature of the test: Effect on oxygen consumption in Macrotermes subhyalinus ovary mitochondria assessed as inhibition of state 4U respiration assessed oxygen atom per mg protein per min at 100 uM in presence of 2,4-dinitrophenol by polarographic analysis.
In test [10] the test system is Macrotermes subhyalinus. Nature of the test: Inhibition of oxidative phosphorylation in Macrotermes subhyalinus ovary mitochondria assessed as respiratory control ratio assessed oxygen atom per mg protein per min at 100 uM.
Test [11] deals with Macrotermes subhyalinus. Nature of the test: Inhibition of oxidative phosphorylation in Macrotermes subhyalinus ovary mitochondria assessed as ADP/O ratio at 100 uM.
Test [12] concerns Macrotermes subhyalinus. Nature of the test: Effect on phosphorylation rate in Macrotermes subhyalinus ovary mitochondria assessed as nmoles ATP synthesized per mg protein per min at 100 uM.

For the molecule `C=C1C(=O)[C@]23C[C@H]1C[C@@H](O)[C@H]2[C@@]12CO[C@@H](O)[C@@H]1C(C)(C)CC[C@@H]2OC3=O`, the Activity was found to be 94.8 in the test on Macrotermes subhyalinus [1], 41.2 with Macrotermes subhyalinus [2], 61.8 in the test on Macrotermes subhyalinus [3] and 170 in the test with Macrotermes subhyalinus [6]. Besides, the values for the Ratio in the test on Macrotermes subhyalinus [4] and in the test with Macrotermes subhyalinus [5] were 2.3 and 1.79, respectively.

Consider `C=C1C(=O)[C@]23[C@H](O)[C@H]1CC[C@H]2[C@@]12CO[C@]3(O)[C@@H](O)[C@@H]1C(C)(C)CC[C@@H]2O`, for which the Activity with Macrotermes subhyalinus [7] was 118; with Macrotermes subhyalinus [8] it was 32.4; with Macrotermes subhyalinus [9], 106; in the test with Macrotermes subhyalinus [12], 156. The Ratio came out at 3.63 with Macrotermes subhyalinus [10] and 1.33 in the test on Macrotermes subhyalinus [11].

As to `C=C1C(=O)[C@]23C[C@H]1C[C@H](O)[C@H]2[C@]1(COC(C)=O)[C@H](CCC(C)(C)[C@H]1C=O)OC3=O`, the Activity worked out at 118 in the test on Macrotermes subhyalinus [7], 44.2 in the test on Macrotermes subhyalinus [8], 41.2 in the test with Macrotermes subhyalinus [9] and 121 with Macrotermes subhyalinus [12]. Also, the results for the Ratio in the test on Macrotermes subhyalinus [10] and with Macrotermes subhyalinus [11] were 2.66 and 1.03, respectively.

As to `C=C1C(=O)[C@]23C[C@H]1CC[C@H]2[C@@]12CO[C@@H](O)[C@@H]1C(C)(C)[C@@H](O)C[C@@H]2OC3=O`, the Activity worked out at 115 with Macrotermes subhyalinus [7], 33.6 in the test on Macrotermes subhyalinus [8], 104 in the test with Macrotermes subhyalinus [9] and 186 in the test on Macrotermes subhyalinus [12]. Besides, the results for the Ratio in the test on Macrotermes subhyalinus [10] and in the test with Macrotermes subhyalinus [11] were 3.41 and 1.62, respectively.

The values above are taken from ChEMBL document CHEMBL1151376, “Inhibition of Mitochondrial Function in Termite Queen Ovary by Rabdosia Diterpenoids” (J Nat Prod, 1981).
